In patent US20220387485A1, “METHODS OF TREATING CANCER WITH A COMBINATION OF A PLATINUM-BASED AGENT AND AN ANTI-TISSUE FACTOR ANTIBODY-DRUG CONJUGATE” (priority 2019, published 2022):

What was measured:
[1] = tested on: HuPrime® cervical xenograft model CV1248 [P3]; assay: Cervical cancer PDX mouse model, tisotumab vedotin with carboplatin (Example 3); type: in vivo, BALB/c nude mice; conditions: for Tumor growth (FIGS. 3A and 3B): single agent, tisotumab vedotin 2 mg/kg, carboplatin 40 or 80 mg/kg, day 0, 7, 14 intravenous
Procedure: The in vivo anti-tumor efficacy of tisotumab vedotin in combination with carboplatin was evaluated in a patient-derived xenograft (PDX) mouse model in female BALB/c nude mice (Crown Bioscience [Taicang] Inc.). Xenografts were derived from tumor specimens from cancer patients. Tumor fragments were obtained from xenografts in serial passage in nude mice. Tumors were cut into fragments of 2-4 mm diameter and placed in phosphate-buffered saline (PBS) until subcutaneous implantation. A cervical cancer PDX model (HuPrime® cervical xenograft model CV1248 [P3]; Crown Bioscience Inc.) was used in this experiment. Tumor size was determined by caliper measurement at least two times a week and tumor volume was calculated as […]. When tumors reached an average volume of 150 mm^3, mice were randomized in 7 groups (10 mice per treatment group). The day of randomization was designated day 0. Mice were treated with the following by intravenous injections: 1) tisotumab vedotin alone at a dose level of 2 mg/kg, provided on day 0, day 7 and day 14; 2) carboplatin (Selleck Chemicals, cat. no. S121511) alone at a dose of 40 mg/kg or 80 mg/kg, provided on day 0, day 7 and day 14; 3) tisotumab vedotin at a dose level of 2 mg/kg, provided on day 0, day 7 and day 14 in combination with carboplatin at a dose of 40 mg/kg or 80 mg/kg, provided on day 0, day 7 and day 14; 4) IgG1 isotype control at a dose of 2 mg/kg provided on day 0, day 7 and day 14; or 5) IgG1-MMAE control at a dose of 2 mg/kg provided on day 0, day7 and day 14. […] Mice were housed in individually ventilated (IVC) cages, up to a maximum of five mice per cage and identified by ear tags. To determine whether there were statistically significant differences between tumor volumes in control and treatment groups, tumor volumes in the treatment groups were compared with those in the control group (e.g., treatment groups vs IgG1-MMAE control) and combination treatment groups were compared with groups treated with either of the compounds alone, using Mann-Whitney analysis at the last day that all groups were intact, i.e., day 20. For analysis of progression-free survival time (tumor size cut-off 750 mm^3), Mantel-Cox analysis was performed on Kaplan-Meier plots.

[2] = tested on: recurrent or metastatic squamous carcinoma of the uterine cervix; conditions: single agent, cited from earlier work
[3] = tested on: HuPrime® cervical xenograft model CV1248 [R4P5]; assay: Cervical cancer PDX mouse model, tisotumab vedotin with cisplatin (Example 1); type: in vivo, BALB/c nude mice; conditions: single agent; for Tumor growth (FIG. 1A-C): tisotumab vedotin 2 mg/kg and 4 mg/kg day 0, 7, cisplatin 4 mg/kg day 0, 7, 14, intravenous; for Survival (FIGS. 1D and 1E): tisotumab vedotin 2 mg/kg and 4 mg/kg, cisplatin 4 mg/kg, tumor size cut-off 1000 mm^3
Procedure: The in vivo anti-tumor efficacy of tisotumab vedotin in combination with cisplatin was evaluated in a patient-derived xenograft (PDX) mouse model in BALB/c nude mice (Crown Bioscience Inc.). Xenografts were derived from tumor specimens from cancer patients. Establishment and characterization of the PDX model was performed following primary implantation into nude mice. Tumor xenografts were passaged approximately three to five times until establishment of stable growth patterns. Tumor fragments were obtained from xenografts in serial passage in nude mice. Tumors were cut into fragments of 2-3 mm diameter and placed in phosphate-buffered saline (PBS) until subcutaneous implantation. A cervical cancer PDX model (HuPrime® cervical xenograft model CV1248 [R4P5]; Crown Bioscience Inc.) was used in this experiment. Tumor size was determined by caliper measurement at least two times a week and tumor volume was calculated as 0.5×length×width. When tumors reached the volume of 200 mm^3, mice were randomized in 11 groups (7-8 mice per treatment group). Mice were treated with the following by intravenous injections: 1) tisotumab vedotin alone at a dose level of 0.5 mg/kg, 1 mg/kg, 2 mg/kg or 4 mg/kg provided on day 0 and day 7 of treatment; 2) cisplatin alone at a dose of 4 mg/kg provided on day 0, day 7 and day 14 of treatment; 3) tisotumab vedotin at a dose level of 0.5 mg/kg, 1 mg/kg, 2 mg/kg or 4 mg/kg provided on day 0 and day 7 of treatment in combination with cisplatin at a dose of 4 mg/kg provided on day 0, day 7 and day 14 of treatment; 4) IgG1 isotype control at a dose of 4 mg/kg provided on day 0 and day 7 of treatment; or 5) IgG1-MMAE control at a dose of 4 mg/kg provided on day 0 and day 7 of treatment. […] Mice were housed in individually ventilated (IVC) cages, four or five mice per cage and identified by ear tags.
To determine whether there were statistically significant differences between tumor volumes in control and treatment groups, tumor volumes in the treatment groups were compared with those in the control group (e.g., treatment groups vs IgG1-MMAE control) using Mann-Whitney analysis at the last day that all groups were intact, i.e., day 38. For survival analysis (tumor volume cut-off was 1,000 mm^3). Mantel-Cox analysis was performed on Kaplan-Meier plots with a cut-off set at tumor volume >1,000 mm^3.

[4] = tested on: bladder xenograft model BXF1036; assay: Bladder cancer PDX mouse model, tisotumab vedotin with cisplatin (Example 2); type: in vivo, Crl:NMRI-Foxn1^nu nude mice; conditions: single agent; for Tumor growth (FIG. 2A-C): tisotumab vedotin 0.5 mg/kg day 1 intravenously, cisplatin 2 mg/kg day 1 and 8 subcutaneously; for Survival (FIG. 2D): tisotumab vedotin 0.5 mg/kg, cisplatin 2 mg/kg, tumor size cut-off 500 mm^3
Procedure: The in vivo anti-tumor efficacy of tisotumab vedotin in combination with cisplatin was evaluated in A PDX mouse model in female Crl:NMRI-Foxn1^nu (Envigo RMS SARL, France) nude mice (Charles River Discovery Research Services). Xenografts were derived from tumor specimens from cancer patients. Establishment and characterization of the PDX model was performed following primary implantation into nude mice. Tumor xenografts were passaged approximately three to five times until establishment of stable growth patterns. Tumor fragments were obtained from xenografts in serial passage in nude mice. Tumors were cut into fragments of 3-4 mm diameter and placed in phosphate-buffered saline (PBS) until subcutaneous implantation. A bladder cancer PDX model (bladder xenograft model BXF1036; Charles River Discovery Research Services) was used in this experiment. Tumor size was determined by caliper measurement at least two times a week and tumor volume was calculated as 0.52×length×width. When tumors reached the volume of 50-250 mm^3, mice were randomized in 5 groups (10 mice per treatment group). Mice were treated with the following: 1) tisotumab vedotin alone at a dose level of 0.5 mg/kg provided on day 1 of treatment; 2) cisplatin alone at a dose of 2 mg/kg provided on day 1 and day 8 of treatment; 3) tisotumab vedotin at a dose level of 0.5 mg/kg provided on day 1 of treatment in combination with cisplatin at a dose of 2 mg/kg provided on day 1 and day 8 of treatment; 4) IgG1 isotype control at a dose of 0.5 mg/kg provided on day 1 of treatment; or 5) IgG1-MMAE control at a dose of 0.5 mg/kg provided on day 1 of treatment. IgG1 isotype control, IgG1-MMAE control and tisotumab vedotin were each in PBS and injected intravenously. Cisplatin was in 0.9% NaCl and injected subcutaneously. […] Mice were housed in individually ventilated (IVC) cages, with a maximum of five mice per cage, and identified by ear tags.
To determine whether there were statistically significant differences between tumor volumes in control and treatment groups, tumor volumes in the treatment groups were compared with those in the control groups (e.g., IgG1-MMAE control, tisotumab vedotin alone or cisplatin alone) using Mann-Whitney analysis at the last day that all groups were intact, i.e., day 25. Statistical analysis of the difference between groups treated with tisotumab vedotin in combination with cisplatin and groups treated with either tisotumab vedotin alone or cisplatin alone was performed on day 32.
Tumor progression was plotted in a Kaplan-Meier plot, with a cut-off set at a tumor volume >500 mm^3. […]

[5] = tested on: stage IVB, recurrent, or persistent squamous cell carcinoma of the cervix; conditions: cited from earlier work
[6] = tested on: relapsed, recurrent, and/or metastatic cervical cancer; conditions: cited from earlier work
[7] = tested on: PD-L1-positive recurrent or metastatic cervical cancer (r/mCC); conditions: 2 L+; 42% of patients previously treated with bevacizumab; cited from earlier work

## N.N.O=C([O-])C1(C(=O)[O-])CCC1.[Pt+2] [Carboplatin, carboplatin]
[1]; carboplatin 40 mg/kg vs IgG1-MMAE
  Average tumor volume Mann-Whitney Day 20 P value: 0.5787
[1]; carboplatin 80 mg/kg vs IgG1-MMAE
  Average tumor volume Mann-Whitney Day 20 P value: 0.1716
[1]
  Tumor growth (FIGS. 3A and 3B): did not inhibit tumor growth
[2]; 6/41
  overall response rate: 15%
[2]
  major toxic effects: anemia: 47%
  major toxic effects: leukopenia: 38%
  major toxic effects: nausea and vomiting: 48%
  major toxic effects: thrombocytopenia: 22%

## N.N.[Cl][Pt][Cl] [Cisplatin]
[3]
  Tumor growth (FIG. 1A-C): inhibited tumor growth
  Survival (FIGS. 1D and 1E): prolonged survival
[4]
  Tumor growth (FIG. 2A-C): inhibited tumor growth
  Survival (FIG. 2D): prolonged survival
[5]; P<0.001 between arms
  median PFS: 2.8 months
[5]; P=0.002 between arms
  Objective responses (OR): 19%
[5]; at the time of data cutoff, no difference
  median survival: 8.8 months
[5]; in vivo
  Objective responses: complete: 6%
  Objective responses: partial: 13%

## Tisotumab vedotin
[3]
  Tumor growth (FIG. 1A-C): efficiently inhibited tumor growth
  Survival (FIGS. 1D and 1E): prolonged survival
[4]
  Tumor growth (FIG. 2A-C): efficiently inhibited tumor growth
  Survival (FIG. 2D): prolonged survival
[1]
  Tumor growth (FIGS. 3A and 3B): efficiently inhibited tumor growth
[1]; tisotumab vedotin 2 mg/kg vs IgG1-MMAE
  Average tumor volume Mann-Whitney Day 20 P value: 0.0068
[6]; in vivo
  AEs of grade 1-2 conjunctivitis: frequently reported
  Clinically relevant perturbations in activated partial thromboplastin time (aPTT) or prothrombin time (PT): have not been observed
  Epistaxis, frequency among bleeding AEs: most common reported AE
  Epistaxis, severity: nearly all of the cases are grade 1
  Peripheral neuropathy, grade of the majority of the reported cases: grade 1-2
[6]; subjects who received treatment with tisotumab vedotin
  Peripheral neuropathy, share of subjects: approximately 35%

## pembrolizumab
[7]
  objective response rate (ORR): 14%
